Test results: ChEMBL document CHEMBL1137063, “The impact of spacer structure on 5-HT7 and 5-HT1A receptor affinity in the group of long-chain arylpiperazine ligands” (Bioorg Med Chem Lett, 2004)

Tests used:
[1] = target: 5-hydroxytryptamine receptor 7 (Rattus norvegicus, UniProt P32305); assay: In vitro ability to displace the radioligand [3H]5-CT from binding to rat 5-hydroxytryptamine 7 receptor
[2] = target: T1, 5-hydroxytryptamine receptor 1A (Rattus norvegicus, UniProt P19327); assay: In vitro ability to displace the radioligand [3H]-OH-DPAT from binding to rat 5-hydroxytryptamine 1A receptor
T1 sequence (P19327 whole entry): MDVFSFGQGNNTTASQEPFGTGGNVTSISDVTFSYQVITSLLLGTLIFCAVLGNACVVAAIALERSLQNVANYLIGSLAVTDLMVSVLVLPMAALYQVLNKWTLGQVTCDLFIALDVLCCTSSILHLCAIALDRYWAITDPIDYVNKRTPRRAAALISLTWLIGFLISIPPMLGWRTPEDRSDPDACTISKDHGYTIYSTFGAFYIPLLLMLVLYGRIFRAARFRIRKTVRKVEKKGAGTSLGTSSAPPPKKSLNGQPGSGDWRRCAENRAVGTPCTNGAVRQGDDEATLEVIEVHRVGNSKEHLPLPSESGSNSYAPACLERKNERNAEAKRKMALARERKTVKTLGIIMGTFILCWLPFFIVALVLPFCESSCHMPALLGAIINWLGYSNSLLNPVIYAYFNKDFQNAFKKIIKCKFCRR

5-hydroxytryptamine receptor 7, sequence (P32305 whole entry): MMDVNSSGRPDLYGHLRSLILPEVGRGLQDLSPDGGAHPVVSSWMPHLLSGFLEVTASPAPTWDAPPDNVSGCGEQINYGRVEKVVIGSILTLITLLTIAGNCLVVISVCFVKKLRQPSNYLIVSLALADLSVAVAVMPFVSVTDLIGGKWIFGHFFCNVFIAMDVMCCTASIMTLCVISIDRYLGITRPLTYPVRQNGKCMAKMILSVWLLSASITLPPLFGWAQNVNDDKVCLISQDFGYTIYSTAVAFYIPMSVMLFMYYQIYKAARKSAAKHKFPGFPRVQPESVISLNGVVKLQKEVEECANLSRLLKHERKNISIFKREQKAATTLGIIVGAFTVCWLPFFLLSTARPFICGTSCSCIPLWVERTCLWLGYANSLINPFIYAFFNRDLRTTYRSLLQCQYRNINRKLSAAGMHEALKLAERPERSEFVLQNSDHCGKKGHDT

Row | SMILES | Ki [1] [µM] | Ki [2] [µM]
1 | COc1ccccc1N1CCN(Cc2ccccc2CN2C(=O)CCC2=O)CC1 | 0.91 | 0.415
2 | COc1ccccc1N1CCN(Cc2ccccc2CN2C(=O)c3ccccc3C2=O)CC1 | 0.367 | 0.405
3 | COc1ccccc1N1CCN(C/C=C\CN2C(=O)CCC2=O)CC1 | 0.79 | 0.157
4 | COc1ccccc1N1CCN(C/C=C\CN2C(=O)c3ccccc3C2=O)CC1 | 0.353 | 0.077
5 | COc1ccccc1N1CCN([C@H]2CC[C@H](N3C(=O)c4ccccc4C3=O)CC2)CC1 | 2.04 | 0.008
6 | COc1ccccc1N1CCN(C/C=C/CN2C(=O)CCC2=O)CC1 | 0.063 | 0.029
7 | COc1ccccc1N1CCN([C@H]2CC[C@H](N3C(=O)CCC3=O)CC2)CC1 | 11.5 | 0.0152
8 | COc1ccccc1N1CCN(C/C=C/CN2C(=O)c3ccccc3C2=O)CC1 | 0.036 | 0.005
